This note sets out measurements from a melting point compilation (Tetko et al.; mined from patent text by program, amines drawn as free bases though some values may be those of a salt).

The structures appear in SMILES notation.

In general, melting point refers to the temperature of the solid-liquid transition.

With `O=C1NC(=C2CCCC2)Sc2ccccc21`, the melting point lay in the range of 190 to 191 °C.
`O=C1c2ccccc2C(=O)N1Cc1ccc(C2=COC(c3cc(Cl)cc(Cl)c3)(C(F)(F)F)C2)cc1Cl` (configuration not stated) showed a melting point of 99.7 °C.
`Fc1ccc(-c2[nH]c(C3CCCNC3)nc2-c2ccncc2)cc1` (configuration not stated) gave a melting point of 252 to 254 °C.
Take `CC(C)(C)c1cc(C(=O)c2ccc(N)cc2)cc(C(C)(C)C)c1O`: the melting point was in the range of 164 to 166 °C.
As for `CN(C)CCNC(=O)N1CCC(Oc2ccccc2)C1` (configuration not stated), the figure is 72 to 73 °C; as for `CCOC(=O)c1c(NCC(=O)OCCCC(=O)c2ccccc2)c2c(Cl)cc(Cl)cc2n1C(=O)OC(C)(C)C`, 129 to 130 °C.
As for `O=C(Nc1ccc(-n2nc(C(F)(F)F)cc2C(F)(F)F)cc1)c1ccc(O)cc1`, the figure is more than 245 °C; as for `NC(=O)c1cc(NCc2ccc(F)cc2)c([N+](=O)[O-])cc1[N+](=O)[O-]`, 178 to 180 °C; as for `COc1ccc(C(=O)c2ccc(F)cc2)c(F)c1`, 89.7 to 90.1 °C.
In the case of `O=C(O)c1cc(Br)cc([N+](=O)[O-])c1Br`, the melting point lay within 225 to 229 °C.
For `Nc1ccc(S(=O)(=O)Nc2cc(N)nc(S)n2)cc1` the value was 232 to 234 °C.
Turning to `NC1=CN(Cc2ccc(Cl)cc2Cl)CN=C1`, the melting point was 104 to 105 °C.
The compound `COc1c(N2CCCC2)c(F)cc2c(=O)c(C(=O)O)cn(C3CC3)c12` displayed a melting point of 257 to 258 °C.
For `COc1ccc2c(=O)cc(-c3cc[nH]n3)oc2c1` the value was 170 to 171 °C; for `O=C(CCCCC1(C(=O)O)CCC1)CCCCC1(C(=O)O)CCC1`, 69 to 70 °C; for `CCOC(=O)c1csc(-c2ccc3c(=O)n(CC(C)C)c(CNC(=O)OCC4c5ccccc5-c5ccccc54)c(-c4ccccc4)c3c2)n1`, 151 to 152 °C.
In turn, `COc1ccc(Cn2c(=O)[nH]c(=O)c3c2nc(C(C)(C)C)n3Cc2ccccc2)cc1` displayed a melting point of 170 to 172 °C.
As for `Nc1ccc(OC(F)(F)F)cc1CO`, the figure is 75.9 to 77.6 °C.
As for `COC(=O)c1ccccc1OCc1ccc(COc2ccccc2C(=O)OC)cc1`, the figure is 115 to 120 °C.
Compound `CCc1nc(-c2cnccn2)no1` registered a melting point of 52 to 57 °C.
For `CCCCCc1ccc(-c2ncc(C#N)c(Cl)n2)cc1` the value was 96 to 96.3 °C; for `Cc1cc(CC(=O)O)sc1C(=O)c1ccccc1`, 86 °C; for `Sc1ncc(-c2ccc(Cl)cc2)[nH]1`, 308 °C.
As to `CNC(=O)c1cccc(-c2cccc3cc(Cc4cccc(C(F)(F)F)c4)sc23)c1`, the melting point is 104 to 106 °C.
As for `CCOC(=O)c1nc(-c2ccc(OC)cc2)oc1C`, the figure is 74 to 76 °C; as for `C#CCNc1nc2ccc(OC(F)(F)F)cc2s1`, 138 to 140 °C; as for `CCCC[C@H](NC(=O)[C@H](CC(C)C)NC(=O)c1cc2cccc(F)c2o1)C(=O)CSCc1ccco1`, 102 to 103 °C.
For `CC(C)(CO)CCCCCCCCCC(C)(C)CO`, the melting point was in the range of 52 to 54 °C.
For `COc1ccc(OC)c2c(=O)cc(C(=O)O)sc12` the value was 210 to 212 °C; for `CCCCCCCCS(=O)(=O)c1ccc(C#N)c(C#N)c1`, 70 to 71 °C; for `CN1C(=O)c2cc(N)ccc2Oc2ncccc21`, 158 to 160 °C.
Turning to `CC(C)(C)C(=O)OCn1cnc2ccc(CBr)cc2c1=O`, the melting point fell in the range of 104 to 114 °C.
Turning to `CC1CCC(=O)CC1S(=O)(=O)c1ccccc1` (configuration not stated), the melting point was in the range of 71 to 74 °C.
For `COC(=O)NC1=NCC(c2cc(Cl)ccc2Cl)CN1` (configuration not stated) the value was 231 to 234 °C; for `CNC(=O)C1CC(=O)c2nc(C)n(C)c2C1` (configuration not stated), 194 to 196 °C; for `Nc1ncnc2c1ncn2OC[C@@H](CO)OCP(=O)(O)O`, 200 to 205 °C.
As for `Cc1ccc(C(=O)Nc2ccc(CN3CCN(C)CC3)c(C(F)(F)F)c2)cc1C#Cc1ccc(NC2CCC2)nn1`, the figure is 120 to 121 °C; as for `CC(CN1CC(=O)N(CN2CCSCC2)C(=O)C1)N1CC(=O)NC(=O)C1` (configuration not stated), 206 to 208 °C.
Compound `CCOc1ccc2c(c1)n(C1CCCC1)c(=O)n2S(=O)(=O)c1ccc(C(=O)OC)cc1OC` gave a melting point of 151 °C.
As for `O=[N+]([O-])c1ccc(N2CCN(Cc3ccccc3)CC2)nc1CS(=O)(=O)c1ccccc1`, the figure is 175 to 176 °C; as for `CNC(=O)c1ccc2[nH]ccc2c1`, 140 to 141 °C; as for `CCOC(=O)N=c1ccc(C)cn1Cc1cccc(C(F)(F)F)c1`, 121 °C.
For `COc1ccc2c(=O)c(NC(=O)C(=O)O)coc2c1` the value was 236 to 238 °C; for `Cc1nc(N2CCN(CC3CC3)C2=O)sc1C(=O)NCc1ccc(F)cc1`, 146 to 147 °C.
As to `O=C1CCCN(C(=O)c2ccc([N+](=O)[O-])cc2Cl)c2ccsc21`, the melting point lay within 180 to 185 °C.
Compound `CON=C(C)CC(C)(C)Cn1cnc2c(N)nc3ccccc3c21` yielded a melting point of 148 to 150 °C.
`O=C(N1CCCCC12CCc1ccccc1C2=O)C(F)(F)F` (configuration not stated) gave a melting point of 97 to 100 °C.
For `COc1ccc2nc(Oc3c(Cl)cc(N)cc3Cl)sc2c1` the value was 158 to 160 °C; for `NC(=C[N+](=O)[O-])NC1CCCC1`, 117 to 124 °C; for `CCC(C)(C)c1cc(-c2ccc(CC3SC(N4CCOCC4)=NC3=O)s2)ccc1O` (configuration not stated), 200 to 202 °C.
In turn, `CCOCc1nc2c(N)nc3ccccc3c2n1CCc1cc(-c2ccc(F)cc2)no1` had a melting point of 180 to 181 °C.
The compound `O=C1Nc2ccc(NC(=O)C(=O)N3CCC(Cc4ccccc4)CC3)cc2C1=O` registered a melting point of 234 to 236 °C.
`O=C(Nc1cccc(-c2ccnc3c(C(=O)c4cccs4)cnn23)c1)c1ccc(-n2cccc2)cc1` had a melting point of 224 to 226 °C.
Turning to `O=C(O)COC1=C(Cc2ccc3c(Br)cccc3c2)C(=O)CCC1`, the melting point was 234 to 236 °C.
Turning to `CCC(=O)C(=O)NC(=O)[C@@H](N)Cc1ccccc1`, the melting point fell in the range of 121 to 123 °C.
As for `COc1ccc2oc3ccc([N+](=O)[O-])cc3c2c1C(=O)Nc1cccnc1`, the figure is 263 to 266 °C; as for `Cn1ncc(C(=O)c2ccc(S(C)(=O)=O)c3c2CC2CON=C32)c1OC(=O)c1ccccc1` (configuration not stated), 86 to 93 °C.
For `CCn1cc(C=O)c(-c2ccc([N+](=O)[O-])o2)n1` the value was 145 to 146 °C.
`CCSC1CCC(=O)N1` (configuration not stated) showed a melting point of 65 to 68 °C.
As for `O=S1(=O)c2cccc3cccc(c23)N1CCN1CCN(c2nsc3ccccc23)CC1`, the figure is 162 °C; as for `CC(=O)Nc1ccc2[nH]c(=O)cc(CCN3CCC(c4c[nH]c5ccccc45)CC3)c2c1`, 180 to 183 °C.
For the compound `Nc1nc2c(nc(C#Cc3ccc(C(F)(F)F)cc3)n2C2OC(CO)C(O)C2O)c(=O)[nH]1` (configuration not stated), the melting point is more than 240 °C.
`CON(C(=O)c1cn(C)nc1C(F)F)C(C)c1ccc(I)cc1` (configuration not stated): the melting point lay in the range of 72 to 74 °C.
Compound `N#Cc1ccc(-c2ccc(S(=O)(=O)NCc3ccncc3)cc2)cc1` returned a melting point of 198 to 202 °C.
For `CC(=O)C1(Nc2ccc(C)cc2)CCN(CCc2ccccc2)CC1` the value was 134 °C; for `CS(=O)(=O)NC1(c2ccc(I)cc2)CC1`, 101 to 102 °C.
Regarding `CC(C)OC(=O)Nc1ccc(Cl)c(C(=O)OC(C)C)c1`, the melting point lay in the range of 108 to 109 °C.
As for `CC(=O)NC(Cc1ccccc1)C(=O)Nc1c(C)cccc1C` (configuration not stated), the figure is 217 to 218 °C; as for `O=c1[nH]c2cccc(Br)c2c(=O)o1`, 280 to 281 °C.
For `Oc1ccc(-c2nnc(Cc3ccc(Oc4ccccc4)cc3)o2)cc1` the value was 202 to 203 °C; for `CCC(C)Cc1ccc(C(=O)O)cc1Br` (configuration not stated), 78.8 to 79.7 °C; for `COc1cccc(COc2ccc(N)nn2)c1OC`, 103 to 106 °C.
As for `CCCn1cnc2c1c(=O)n(CCCCCCO)c(=O)n2C`, the figure is 68 to 70 °C; as for `COc1ccc2ncc(CC(N)C(=O)O)cc2c1` (configuration not stated), 246 to 247 °C.
Take `CNn1cc(C(=O)O)c(=O)c2cc(F)c(F)c(F)c21`: the melting point fell in the range of 237 to 238 °C.
`CN1C(=O)N(N=Cc2cccnc2)Cc2cc(C(F)(C(F)(F)F)C(F)(F)F)ccc21` displayed a melting point of more than 300 °C.
For `Cc1ccc(-n2nc(N3CCN(C(N)=O)CC3)c3ccccc32)cc1` the value was 146 to 148 °C; for `CCS(=O)(=O)N[C@H](C(=O)NCc1ccc(OCc2ccccc2)c(OC)c1)C(C)C`, 141 to 152 °C.
For `CCc1ncc(CCCO)n1C` the value was 69 to 71 °C; for `COc1ccc2c(c1)C(CCNC(C)=O)=C(Cc1ccccc1)C2`, 133 to 135 °C; for `COC(=O)C(CCSC)NC(=O)c1ccc(NC(=O)Cc2cn(S(=O)(=O)c3ccc(C)cc3)cn2)cc1-c1ccccc1` (configuration not stated), 202 to 203 °C.
For `CCn1nc(C(C)C)c2c1C(=O)NCC(c1ccccc1)=N2` the value was 160 °C.
As for `CC(O)(c1ccc(Cl)cc1)C1CCNCC1` (configuration not stated), the melting point is 178 to 180 °C.
For `C[C@@H]1S[C@@H](C(=O)N(C)c2ccc(CN3CCOCC3)cc2)Cc2cc3c(cc2C1=O)OCO3` the value was 162 to 165 °C.
For `Cc1cc(F)ccc1NC(=O)c1cccc(S(=O)(=O)N(C)c2ccc(Br)cc2)c1` the value was 163 to 165 °C.
For `CC(COc1ccc(O)c(C(N)=O)c1)NCC(O)c1ccccc1` (configuration not stated) the value was 152 to 154 °C; for `CC(C)(C)C(=O)C(O)NC(=O)c1ccc(Cl)cc1` (configuration not stated), 130 °C; for `COC(=O)CCCCCSC1=CC(OC2CCCCO2)CC1=O` (configuration not stated), 41 to 42 °C.
Take `COc1cc(-c2nc(C)no2)cc([N+](=O)[O-])c1OC`: the melting point was found to be 111 °C.
As for `O=C(O)C(O)=CC(=O)c1ccc(Cl)c(Cl)c1`, the figure is 180 to 181 °C.
For `CCCOc1ccccc1-c1nc2cc(SC)ccc2c(=O)[nH]1` the value was 156 to 158 °C; for `O=C(O)C1CCc2c(oc3cc(Cl)ccc23)C1` (configuration not stated), 189 to 191 °C.
